From patent US20250332212A1, “METHOD FOR TREATING OR PREVENTING ALOPECIA” (Suzhou Mingren Pharmaceutical Biotechnology Co., Ltd., priority 2024, published 2025)
Square brackets hold non-standard residues; d marks the D form. Ends that are not written are not given here. pS = N[C@@H](COP(=O)(O)O)C(=O)O

Legend:
[1] = mouse, in vivo
Experimental: (§3) In this Example, to elucidate the mechanism of JP1 penetrating the skin and acting on the hair follicle, a 14-day AGA modeling was performed according to the model design strategy of Example 1 above. Thereafter, a 1% FITC-JP1 solution was applied to the dorsal depilated area of the mice in a light-avoidance environment. Five time points were set at 0.5, 1, 2, 4 and 8 h for observation. The fresh skin tissue was made into frozen sections, and the penetration pathway of JP1 in the skin tissue and the amount of aggregation in the hair follicles were observed under an inverted fluorescence microscope.
(§4) 15 C57BL/6J male mice were dorsally depilated after two weeks of continuous TP injection. A 1% FITC-JP1 solution was applied locally to the depilated area of the mice on the 1st day after depilation, no light, in five groups of 0.5 h, 1 h, 2 h, 4 h and 8 h (n=3).
(§5) The back skin was removed at the corresponding time points and fixed in 4% paraformaldehyde. After 48 h of fixation, the skin tissue was successively dehydrated in 20% and 30% sucrose solution for 2 days each. After gradient dehydration, sections (20 μm) were made using a frozen microtome. Zeiss inverted fluorescence microscope was used to photograph the fluorescent sections.

[2] = test system: AR, FOXD3, and FOXI1; assay: qPCR of other predicted SP1 transcription factors in skin tissue; format: in vivo, mouse; settings: P>0.05
Experimental: Four transcription factors that can bind to the SP1 promoter region were obtained by taking the intersection of the predicted data: E2F1, AR, FOXD3, and FOXI1 (FIG. 13A).
(§1) 7.1) Dilute the specific gene amplification primers to 10 µM in ddH2O, prepare the qPCR reaction system according to the instructions in the kit and add them sequentially into a 384-well plate.
(§2) 7.3) Relative mRNA expression levels of genes were calculated by the […] relative quantification method using GAPDH as an internal reference.

[3] = JP1 permeability experiment (FITC-JP1 applied to depilated skin); settings: 1% FITC-JP1 solution applied to dorsal depilated area
Experimental: as §3, §4, §5

[4] = test system: Wnt1, Wnt3a, Wnt7b; assay: qPCR of the other Wnt molecules in skin tissue; format: in vivo, mouse; settings: P>0.05
Experimental: To illustrate the regulation of JP1 on the upstream Wnt ligand of β-catenin, this example intersected classical signaling pathway-related Wnt ligands and AGA-related Wnt ligands, and screened out the related Wnt ligands, including Wnt1, Wnt3a, Wnt7b, Wnt10a, and Wnt10b. In this example, qPCR was used to detect the mRNA expression of these Wnt molecules in the skin tissue of the mouse model in Example 6.
as §1, §2

[5] = test system: AR; assay: qPCR of AR mRNA in skin tissue of model mice; format: in vivo, mouse; settings: model II, P>0.05
Experimental: 6.1) Sample preparation: 15-20 mg of mouse skin tissue was placed in a 1.5 mL centrifuge tube, and 600 μL of pre-cooled lysate was quickly added, and homogenized with an electric homogenizer. The homogenate obtained was blown gently 10 times, left at room temperature for 3-5 min, then centrifuged at 14,000×g for 5 min, and the supernatant was transferred to a new centrifuge tube with a pipette gun of suitable volume.
6.10) Reverse transcribe the RNA into cDNA according to the instructions of the reverse transcription kit, and then carry out subsequent experiments or store at −20° C. for later use.
as §1, §2

[6] = test system: Wnt signaling pathway; assay: Proteomics and protein phosphorylation sequencing of skin tissue (KEGG, GSEA); format: in vivo, mouse
Experimental: Appropriate amounts of mouse skin tissues (n=3) from the model group and 1% JP1 group were added to a mortar pre-cooled with liquid nitrogen, and ground thoroughly with liquid nitrogen into powders. The samples were separately added to lysis buffer and lysed by ultrasonication. The centrifugation was performed at 4° C., 12,000×g for 10 min, and protein concentration was determined by BCA. Trypsin digestion was followed by liquid chromatography-mass spectrometry serial analysis.

[7] = test system: TP-induced AGA model mice; assay: TP-induced AGA model, Animal model I (JP1 intraperitoneal or topical skin-coating); format: in vivo, C57BL/6J male mice
Text: C57BL/6 mice were selected for modeling in this example according to the first design scheme (FIG. 1A). For more details, see “Animal model I” of “1. TP-induced AGA model” in “Experimental Methods” below.
The mice used in this study were 5-week-old C57BL/6J male mice (18-20 g), which were purchased from Jiangsu Jicui Pharmachem Biotechnology Co. All the animals used in the experiments were housed in the SPF-level environment of the Medical Laboratory Animal Center of Nanjing Medical University, and the relevant animal experimental operations were approved by the Animal Ethics Committee of Nanjing Medical University. The control group was left untreated, and the other groups were injected with TP subcutaneously on their backs every day. Two weeks later, the hair on the backs of the mice was shaved with an electric razor, covering an area of 2 cm×4 cm, and then the residual hair was removed with a hair removal cream. The subcutaneous injections of TP on the shaved backs of the mice in the AGA model was continued until the end of the experimental period, and the administration of TP in each of the treatment groups was begun on the 1st day of the dehairing process.
In addition to the normal control group (denoted as control) n=3, all mice injected subcutaneously with TP were randomly divided into the following groups (n=3): the model group (denoted as model), the 1 wt. % JP1 and 2% JP1 (intraperitoneal), the 1% JP1 and 2% JP1 (topical skin-coating, denoted as apply), the 5% minoxidil group, and the 2% JP1 (intraperitoneal) combined with 5% minoxidil group. The mice were administered continuously for 35 days, euthanized.
Mice were weighed every two days during the experiment. Skin color was assessed against skin score charts. The mice were euthanized and treated at the end of the experiment, and skin tissues were taken from the dorsal decorticated area of the mice. Some of the tissues were fixed with 4% paraformaldehyde solution and then paraffin sections were made for H&E or immunofluorescence staining, etc., and some of the tissues were stored in the refrigerator at −80° C. for relevant molecular expression assays (qRT-PCR, Western Blot, IP, etc.).
8.1) Sampling and fixation: After the experiment, skin tissue was taken from the depilated area on the back of the mouse and placed in a 10 mL EP tube. 4% paraformaldehyde was added to the EP tube, and all tissues were immersed to denature and coagulate the proteins of the skin tissue. The original morphology and structure of the cells were maintained.
8.6) H&E staining: the sections pretreated in distilled water were put into aqueous hematoxylin solution for a few minutes for staining. The color was separated in acid water and ammonia for a few seconds each. After rinsing in running water for 1 h, the sections were placed in distilled water for a few moments. The sections were dehydrated in 70% and 90% alcohol for 10 min each, and stained in alcoholic eosin stain for 2-3 min.

[8] = test system: β-catenin; assay: β-catenin expression in skin tissue (qPCR, immunoblotting, immunofluorescence); format: in vivo, mouse
Experimental: 4.1) Protein extraction: 70 mg of skin tissue was placed in a 1.5 mL centrifuge tube, and 500 μL of tissue lysate RIPA containing protease inhibitor and phosphatase inhibitor was added. The tissue was placed on an ice box, pulverized by a tissue grinder, and then ultrasonically crushed to obtain a tissue suspension, which was then placed in a rotary windmill at 4° C. to be lysed for 2 h. The centrifuge was set at 12,000×g, 4° C., centrifuged for 15 min, and the supernatant was collected as the total protein.
5.1) Heating of protein samples: the total protein content of each tissue was 50 μg; calculate the volume of a corresponding protein sample, make up the volume with saline to 16 μL, then add 4 μL of 5×SDS sampling buffer, heat at 100° C. for 5 min, and then cool at room temperature and store at −20° C.
5.7) Primary antibody incubation: the cut protein bands were placed into the corresponding primary antibody and incubated at 4° C. on a shaker overnight, washed with TBST 3 times for 10 min/time.
as §1, §2
9.5) Primary antibody incubation: the tissue was circled by the histochemical pen, about 50 μL of primary antibody was added dropwise to the tissue, and incubated in a wet box overnight at 4° C., washed 3 times with PBS.

[9] = H&E longitudinal section, each JP1 treatment group vs model and solvent groups

Substance: FPGSDRF-RGD (FPG[pS]DRFRGD) [JP1, amino acid S is phosphorylated; JWA peptide]
- penetration into skin and follicle tissue [1]: able to penetrate into the skin and enter into the follicle tissue in a targeted manner
- mRNA expression of other molecules (predicted SP1 transcription factors) [2]: did not change significantly
- fluorescence brightness at 8 h [3]: obviously weakened
- distribution of the drug in skin at 0.5 h ([3]; fluorescence): basically covered the surface of the skin
- mRNA levels of the other Wnt molecules among the groups [4]: not statistically significant
- AR mRNA level, difference between groups [5]: no statistically significant difference
- KEGG signaling pathway analysis, differences 1% JP1 vs model group ([6]; skin tissue, proteomics): mainly enriched in the Wnt signaling pathway
- GSEA analysis of Wnt/β-catenin signaling pathway ([6]; skin tissues of JP1-treated mice): enriched
- hair growth index (skin color score) vs model group ([7]; 1% JP1, intraperitoneal injection, P>0.05): statistically not significant
- hair growth index (skin color score) vs solvent group (vehicle (apply)) ([7]; 2% JP1 (apply), topical skin coating): higher than that of the solvent group
- hair growth index (skin color score) vs model group ([7]; 2% JP1 (apply), topical skin coating, P<0.05): higher than that of the model group
- hair growth index (skin color score) vs model group ([7]; 2% JP1, intraperitoneal injection, P<0.001): significantly higher than that of the model group
- hair growth (skin appearance on the back) ([7]; AGA mice, JP1 injected intraperitoneally or applied to the skin): promoted hair growth
- dermal layer thickness [7, 9]: increased dermal layer thickness
- hair follicle length [7, 9]: longer hair follicle length
- difference in body weight gain between groups ([7]; during mouse modeling, P>0.05): not statistically significant
- effect on hair follicle cycle relative to minoxidil ([7]; skin of AGA model mice): comparable to the effect of minoxidil
- hair follicle cycle (resting phase / anagen phase) ([7]; skin of AGA model mice): shorten the resting phase of the hair follicle
- β-catenin immunohistofluorescence staining [8]: trend consistent with the results of protein immunoblotting experiments
- β-catenin protein expression ([8]; protein immunoblotting, dose-effect relationship for JP1): increased
- β-catenin mRNA expression vs model group ([8]; qPCR): increased
